According to US20250074902A1, “FUSED BICYCLIC HETEROARYL AMIDE COMPOUND AS PROTEIN AGGREGATION INHIBITOR” (SHANGHAI JINGXIN BIOMEDICAL CO., LTD., priority 2021, published 2025):

Each molecule was assayed against T1, α-synuclein (Homo sapiens, UniProt P37840) (assay: Detection of the ability of compounds to inhibit α-synuclein self-aggregation by HPLC). Conditions: test compound 200 μg/mL, α-synuclein 250 μg/ml, 37° C., 9 days; HPLC peak area of α-synuclein multimers vs model group.
T1 construct: purchased Sino Biological
Assay type: biochemical
Experimental: The test compound (for poorly soluble compounds, dissolve with an appropriate amount of DMSO first) and fresh α-synuclein monomers (purchased from Sino Biological) were added to pure water to a final protein concentration of 250 μg/ml, and the concentration of the test compound was 200 μg/mL, followed by incubation at 37° C. for 9 days. The peak area of α-synuclein multimers after incubation was detected by HPLC and the inhibition rate was calculated. […] Inhibition rate=(peak area of model group−peak area of example group)/peak area of model group×100%.

In the case of `CCCCC(Cc1c[nH]c2ccccc12)NC(=O)c1cc2ccc(N3CCN(C)CC3)cc2o1` (stereo not drawn) [Example 27, N-(1-(1H-indole-3-yl)hexan-2-yl)-6-(4-methylpiperazine-1-yl) benzofuran-2-carboxamide], the “inhibition rate (%)” value is reported as 87.6%.

Same assay, conditions: test compound 200 μg/mL, α-synuclein 250 μg/ml, 37° C., 9 days; HPLC peak area of α-synuclein multimers vs model group; read-out: inhibition rate (%)

Compared with `CCCCC(Cc1c[nH]c2ccccc12)NC(=O)c1cc2ccc(N3CCN(C)CC3)c(F)c2s1` (stereo not drawn) [Example 17, 7-Fluoro-N-[1-(1H-indol-3-yl)hexyl-2-yl]-6-(4-methylpiperazin-1-yl)-1-benzothiophene-2-carboxamide], `CCCCC(Cc1c[nH]c2ccccc12)NC(=O)c1cc2cnc(N3CCN(C)CC3)nc2s1` (stereo not drawn) [Example 29, N-(1-(1H-indole-3-yl)hexane-2-yl)-2-(4-methylpiperazine-1-yl) thieno [2,3-d]pyrimidine-6-carboxamide] is lower in inhibition at 200 µg/mL: 98.2% for the first, 96.7% for the second.

Going from `CCCCC(Cc1c[nH]c2ccccc12)NC(=O)c1cc2cnc(N3CCC(C)CC3)cc2s1` (stereo not drawn) [Example 18, N-(1-(1H-indol-3-yl)hexane-2-yl)-6-(4-methylpiperidin-1-yl) thieno[3,2-c]pyridine-2-carboxamide] to `CCCCC(Cc1c[nH]c2ccccc12)NC(=O)c1cc2ccc(N3CCC(O)CC3)cc2s1` (stereo not drawn) [Example 19, N-(1-(1H-indol-3-yl)hexane-2-yl)-6-(4-hydroxypiperidin-1-yl) benzo[b]thiophene-2-carboxamide], the inhibition at 200 µg/mL rises from 76.9% to 93.5%.

Going from `CCCCC(Cc1c[nH]c2ccccc12)NC(=O)c1cc2ccc(N3CCC4(CC3)COC4)cc2s1` (stereo not drawn) [Example 20, N-[1-(1H-indol-3-yl)hexane-2-yl]-6-(2-oxa-7-azaspiro [3.5]nonan-7-yl)-1-benzothiophene-2-carboxamide] to `CCCCC(Cc1c[nH]c2ccccc12)NC(=O)c1cc2ccc(N3CCC4(CC3)CN(C)C4)cc2s1` (stereo not drawn) [Example 22], the inhibition at 200 µg/mL falls from 95.6% to 83.8%.

Compared with `CCCCC(Cc1c[nH]c2ccccc12)NC(=O)c1cc2ccc(N3CCC4(CC3)CN(C3CCN(C)CC3)C4)cc2s1` (stereo not drawn) [Example 21], `CCCCC(Cc1c[nH]c2ccccc12)NC(=O)c1cc2ccc(N3CCC(C)(O)CC3)cc2s1` (stereo not drawn) [Example 48, N-(1-(1H-indol-3-yl)hexane-2-yl)-6-(4-hydroxy-4-methylpiperidin-1-yl) benzo[b]-thiophene-2-carboxamide] is higher in inhibition at 200 µg/mL: 78.2% for the first, 96.5% for the second.

`CCCCC(Cc1c[nH]c2ccccc12)NC(=O)c1cc2ccc(N3CCOCC3)cc2s1` (stereo not drawn) [Example 23, N-(1-(1H-indol-3-yl)hexane-2-yl)-6-morpholinobenzo[b]thiophene-2-carboxamide] and `CCCCC(Cc1c[nH]c2ccccc12)NC(=O)c1cc2ccc(N3CCC(N(C)C)CC3)cc2s1` (stereo not drawn) [Example 24, N-(1-(1H-indol-3-yl)hexane-2-yl)-6-(4-(dimethylamino)piperidin-1-yl) benzo[b]thiophene-2-carboxamide] are the same in inhibition at 200 µg/mL: 89.7% for the first, 89.7% for the second.

Going from `CCCCC(Cc1c[nH]c2ccccc12)NC(=O)c1cc2ccc(N3CC4(CN(C)C4)C3)cc2s1` (stereo not drawn) [Example 25, N-(1-(1H-indol-3-yl)hexane-2-yl)-6-(6-methyl-2,6-diazaspiro [3.3]heptane-2-yl) benzo[b]thiophene-2-carboxamide] to `CCCCC(Cc1c[nH]c2ccccc12)NC(=O)c1cc2ccc(N3CC4(C3)CC(C)(O)C4)cc2s1` (stereo not drawn) [Example 50, N-(1-(1H-indol-3-yl)hexane-2-yl)-6-(6-hydroxy-6-methyl-2-azaspiro [3.3]heptane-2-yl) benzo[b]thiophene-2-carboxamide], the inhibition at 200 µg/mL rises from 90.8% to 95.7%.

Compared with `CCCCC(Cc1c[nH]c2ccc(F)cc12)NC(=O)c1cc2ccc(N3CCN(C)CC3)cc2s1` (stereo not drawn) [Example 26, N-(1-(5-fluoro-1H-indole-3-yl)hexane-2-yl)-6-(4-methylpiperazine-1-yl) benzo [b] thiophene-2-carboxamide], `CCCCC(Cc1c[nH]c2ccc(C)cc12)NC(=O)c1cc2ccc(N3CCN(C)CC3)cc2s1` (stereo not drawn) [Example 30, N-(1-(5-methyl-1H-indole-3-yl)hexane-2-yl)-6-(4-methylpiperazine-1-yl) benzo[b]thiophene-2-carboxamide] is lower in inhibition at 200 µg/mL: 93.3% for the first, 71.4% for the second.

Compared with `CCCCC(Cc1c[nH]c2ccccc12)NC(=O)c1cc2ccc(N3CCN(C)CC3)cc2[nH]1` (stereo not drawn) [Example 28, N-(1-(1H-indole-3-yl)hexane-2-yl)-6-(4-methylpiperazine-1-yl)-1H-indole-2-carboxamide], `CCCCC(Cc1c[nH]c2ccccc12)NC(=O)c1cc2ccc(N3CCN(C)CC3)cc2n1C` (stereo not drawn) [Example 36, N-[1-(1H-indol-3-yl)hexyl-2-yl]-1-methyl-6-(4-methylpiperazin-1-yl)-1H-indole-2-carboxamide] is higher in inhibition at 200 µg/mL: 73% for the first, 85.3% for the second.

Compared with `CCCCC(Cc1c[nH]c2ccncc12)NC(=O)c1cc2ccc(N3CCN(C)CC3)cc2s1` (stereo not drawn) [Example 31, N-(1-(1H-pyrrole[3,2-c]pyridin-3-yl)hexane-2-yl)-6-(4-methylpiperazine-1-yl) benzo[b]thiophene-2-carboxamide], `CCOCCC(Cc1c[nH]c2ccccc12)NC(=O)c1cc2ccc(N3CCN(C)CC3)cc2s1` (stereo not drawn) [Example 41, N-(4-ethoxy-1-(1H-indol-3-yl)butane-2-yl)-6-(4-methylpiperazin-1-yl) benzol[b]-thiophene-2-carboxamide] is lower in inhibition at 200 µg/mL: 95.3% for the first, 82.5% for the second.

Compared with `CC(C)=CCC(Cc1c[nH]c2ccccc12)NC(=O)c1cc2ccc(N3CCN(C)CC3)cc2s1` (stereo not drawn) [Example 32, N-(1-(1H-indol-3-yl)-5-methyl-4-hexene-2-yl)-6-(4-methylpiperazin-1-yl) benzo[b]thiophene-2-carboxamide], `C/C=C\CC(Cc1c[nH]c2ccccc12)NC(=O)c1cc2ccc(N3CCN(C)CC3)cc2s1` (stereo not drawn) [Example 35, (Z)—N-(1-(1H-indol-3-yl)-4-hexene-2-yl)-6-(4-methylpiperazin-1-yl) benzo[b]thiophene-2-carboxamide] is lower in inhibition at 200 µg/mL: 86.1% for the first, 85.4% for the second.

Compared with `CC(C)CCC(Cc1c[nH]c2ccccc12)NC(=O)c1cc2ccc(N3CCN(C)CC3)cc2s1` (stereo not drawn) [Example 33, N-(1-(1H-indol-3-yl)-5-methylhexane-2-yl)-6-(4-methylpiperazin-1-yl) benzo[b]thiophene-2-carboxamide], `CN(C)CCC(Cc1c[nH]c2ccccc12)NC(=O)c1cc2ccc(N3CCN(C)CC3)cc2s1` (stereo not drawn) [Example 38] is lower in inhibition at 200 µg/mL: 93.4% for the first, 78.3% for the second.

Compared with `COCCC(Cc1c[nH]c2ccccc12)NC(=O)c1cc2ccc(N3CCN(C)CC3)cc2s1` (stereo not drawn) [Example 34, N-[1-(CH-indol-3-yl)-4-methoxybutyl-2-yl]-6-(4-methylpiperazin-1-yl)-1-benzothiophene-2-carboxamide], `CCOCC(Cc1c[nH]c2ccccc12)NC(=O)c1cc2ccc(N3CCN(C)CC3)cc2s1` (stereo not drawn) [Example 39, N-(1-ethoxy-3-(1H-indol-3-yl)propane-2-yl)-6-(4-methylpiperazin-1-yl) benzo[b]-thiophene-2-carboxamide] is lower in inhibition at 200 µg/mL: 97.5% for the first, 92.6% for the second.

First: CC/C=C/C(Cc1c[nH]c2ccccc12)NC(=O)c1cc2ccc(N3CCN(C)CC3)cc2s1 (stereo not drawn) [Example 37, (E)-N-(1-(1H-indol-3-yl)-3-hexene-2-yl)-6-(4-methylpiperazin-1-yl) benzo-[b]thiophene-2-carboxamide]
Second: CC(C)/C=C/C(Cc1c[nH]c2ccccc12)NC(=O)c1cc2ccc(N3CCN(C)CC3)cc2s1 (stereo not drawn) [Example 40, (E)-N-(1-(1H-indol-3-yl)-S-methyl-3-hexene-2-yl)-6-(4-methylpiperazin-yl) benzo[b]-thiophene-2-carboxamide]
The inhibition at 200 µg/mL of the first is higher: 86.7% for the first, 76.8% for the second.

First: CCCCC(Cc1c[nH]c2ccccc12)NC(=O)c1cc2ccc(N3CCN(S(=O)(=O)C4CC4)CC3)cc2s1 (stereo not drawn) [Example 44, 6-[4-(Cyclopropanesulfonyl)piperazine-1-yl]-N-[1-(1H-indol-3-yl)hexane-2-yl]-1-benzothiophene-2-carboxamide]
Second: CCCCC(Cc1c[nH]c2ccccc12)NC(=O)c1cc2ccc(N3CCN(S(C)(=O)=O)CC3)cc2s1 (stereo not drawn) [Example 45, N-[1-(1H-indol-3-yl)hexane-2-yl]-6-(4-methylsulfonylpiperazine-1-yl)-benzothiophene-2-carboxamide]
The inhibition at 200 µg/mL of the first is higher: 89.7% for the first, 82.3% for the second.

First: CCCCC(Cc1c[nH]c2ccccc12)NC(=O)c1cc2ccc(N3CCN(C)C(=O)C3)cc2s1 (stereo not drawn) [Example 46, N-[1-(1H-indol-3-yl)hexane-2-yl]-6-(4-methyl-3-oxopiperazin-1-yl)-benzothiophene-2-carboxamide]
Second: CCCCC(Cc1c[nH]c2ccccc12)NC(=O)c1cc2ccc(N3CCN(C)CC3=O)cc2s1 (stereo not drawn) [Example 47, N-[1-(1H-indol-3-yl)hexane-2-yl]-6-(4-methyl-2-oxypiperazin-1-yl)-1-benzothiophene-2-carboxamide]
The inhibition at 200 µg/mL of the first is higher: 78.9% for the first, 73.5% for the second.

Going from `CCCCC(Cc1c[nH]c2ccccc12)NC(=O)c1cc2ccc(N3CC(C)(O)C3)cc2s1` (stereo not drawn) [Example 49, N-(1-(1H-indol-3-yl)hexane-2-yl)-6-(3-hydroxy-3-methylazetidine-1-yl) benzo[b]-thiophene-2-carboxamide] to `CCCCC(Cc1c[nH]c2ccccc12)NC(=O)c1cc2ccc(N3CCC(C)(O)C3)cc2s1` (stereo not drawn) [Example 51, N-(1-(1H-indol-3-yl)hexane-2-yl)-6-(3-hydroxy-3-methylpyrrolidin-1-yl) benzo[b]-thiophene-2-carboxamide], the inhibition at 200 µg/mL falls from 92.9% to 90.3%.
